# In US20110112114A1, “INHIBITORS OF SERINE PROTEASES, PARTICULARLY HEPATITIS C VIRUS NS3 PROTEASE” (priority 1999, published 2011):
# Biological target: HCV NS3 serine protease (Hepatitis C virus genotype 1a, UniProt P27958)
# Test: biochemical
# Conditions: Ki from rate vs. [inhibitor] plots, Morrison tight binding competitive inhibition fit; with or without NS4A; 30 C, pH 7.8
# Protocol: Peptides EDVVabuCSMSY (Abu designates—aminobutyric acid), […], […] and EDVV AbuC-p-nitroanilide was purchased from AnaSpec Inc. (San Jose, Calif.).
# Cleavage reactions were quenched by the addition of an equal volume of a mixture of 10% TFA: acetonitrile (1:1) and activity was assessed on a reversed phase HPLC column (Rainin C18 Microsorb-MV, […], 4.6×250 mm; 0-50% acetonitrile, 0.1% TFA@3.33% min) using a Hewlett Packard 1050 instrument with auto-injection and diode array detection at 210 nm and 280 nm (where appropriate). Peptide elution fragments were collected and identified by mass spectrometry and N-terminal sequence analysis. Fragment identity and concentration was further verified by authentic, synthesized products. Initial rates of cleavage were determined at <20% substrate conversion and catalytic parameters were determined assuming Michaelis-Menten kinetics using the MultiFit program (Day Computing, Cambridge, Mass.).
# Spectrophotometric assays were run in a 96-well microtiter plate at 30 C, using a SpectraMax 250 reader (Molecular Devices, Sunnyvale, Calif.) with kinetic capability. Cleavage of EDVV AbuC-p-nitroanilide (5A-pNA) substrate was performed with or without NS4A in the same buffer used for HPLC assays at 30 C, and pNA release was monitored at 405 nm. The extinction coefficient of p-nitroaniline is independent of pH at values of 5.5. and above [Tuppy, H., et al., Hoppe-Seyler's Z. Physiol. Chem., 329, pp. 278-288 (1962)]; Raybuck and Luong, unpublished observations).
# Kinetic constants for the rapid equilibrium ordered bisubstrate reaction were determined from rate vs. [4A], [EDVV Abuc-pNa]data by non-linear least squares fitting to equation 1 [Morrison, J. F. Biochim. Biophys. Acta., 185, pp. 269-286 (1969)] as described in the text. Kii and Kis valkues for peptidyl inhibitors were determined from rate vs. [inhibitor], [substrate] data and fitting to the equation for mixed inhibition:
# rate=Vmax[S]/{Km(1+[I]/Kis0+[S](1+[I]/Kii)}
# The commercial program KinetAsyst (State College, Pa.) was used for both procedures. Ki values were calculated from rate vs. [inhibitor] plots by a nonlinear least squares fit of the data to the equation of Morrison for tight binding competitive inhibition [Morrison, J. F. Biochim. Biophys. Acta., 185, pp. 269-286 (1969)]. The KineTic program (BioKin Ltd) was used for this procedure.
# Ki values are express in μM. Category “A” indicates <1 μM inhibition; category “B” indicates 1-100 μM inhibition; category “C” indicates >100 μM.
# Sequence of HCV NS3 serine protease (P27958 1027-1208): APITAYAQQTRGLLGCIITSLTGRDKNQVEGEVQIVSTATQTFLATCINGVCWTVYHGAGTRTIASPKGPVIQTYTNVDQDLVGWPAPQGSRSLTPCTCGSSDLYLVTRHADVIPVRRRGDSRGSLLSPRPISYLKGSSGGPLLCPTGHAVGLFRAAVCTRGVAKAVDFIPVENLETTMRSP
row,SMILES,Ki
1,CCC(C=O)NC(=O)c1cc(OCc2ccc(Cl)c(Cl)c2)ccc1NC(=O)C(NC(=O)C(NC(=O)c1cnccn1)C(C)C)C(C)C (stereo not shown) [Compound 107],1 to 100 µM
2,CCC(C=O)NC(=O)c1cc(OCc2ccccc2)ccc1N(C)C(=O)C(NC(=O)C(NC(=O)c1cnccn1)C(C)C)C(C)C (stereo not shown) [Compound 103],1 to 100 µM
3,CCC(C=O)NC(=O)c1cc(OCc2ccccc2)ccc1NC(=O)C(NC(=O)c1c(O)ccc2ccccc12)C(C)C (stereo not shown) [Compound 104],1 to 100 µM
4,CCC(C=O)NC(=O)c1cc(OCc2ccccc2)ccc1NC(=O)C(NC(=O)C(NC(=O)c1cnccn1)C(C)C)C(C)C (stereo not shown) [Compound 101],1 to 100 µM
